Experimental data published in ChEMBL document CHEMBL1201862, “PubChem BioAssay data set” (2004).
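How tested: cells in 96-well plates exposed to compound for 48 hours at five concentrations. Here, GI50 denotes the concentration required for 50% inhibition of growth.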 Active and inactive are the calls of the source. No stated cut-off is given here; in the data, active = GI50 up to about 1.1 µM and inactive = higher.

What was measured:
Test in all cases: NCI anticancer screen, dose series, 48 h
SF-539 = test system: SF-539
CCRF-CEM = test system: CCRF-CEM
COLO 205 = test system: COLO 205
NCI-H226 = test system: NCI-H226
SF-268 = test system: SF-268
HCT-116 = test system: HCT-116
HCC 2998 = test system: HCC 2998
HL-60 = test system: HL-60
NCI-H522 = test system: NCI-H522
UO-31 = test system: UO-31
SK-OV-3 = test system: SK-OV-3
TK-10 = test system: TK-10
NCI-H23 = test system: NCI-H23
EKVX = test system: EKVX
HT-29 = test system: HT-29

| SMILES | GI50 (SF-539) | GI50 (CCRF-CEM) | GI50 (COLO 205) | GI50 (NCI-H226) | GI50 (SF-268) | GI50 (HCT-116) | GI50 (HCC 2998) | GI50 (HL-60) | GI50 (NCI-H522) | GI50 (UO-31) | GI50 (SK-OV-3) | GI50 (TK-10) | GI50 (NCI-H23) | GI50 (EKVX) | GI50 (HT-29) |
| --- | --- | --- | --- | --- | --- | --- | --- | --- | --- | --- | --- | --- | --- | --- | --- |
| Cc1ccc(S(=O)(=O)NC2(C=O)CCCC3CCCCC32)cc1 (stereo not drawn) | > 100 µM (inactive) | > 100 µM (inactive) | > 100 µM (inactive) | > 100 µM (inactive) | > 100 µM (inactive) | > 100 µM (inactive) | > 100 µM (inactive) | > 100 µM (inactive) | > 100 µM (inactive) | > 100 µM (inactive) | > 100 µM (inactive) | > 100 µM (inactive) |  |  |  |
| CC1=C(C(=O)Nc2cccc(C(F)(F)F)c2)C(c2ccc(O)cc2)C(C(=O)Nc2cccc(C(F)(F)F)c2)=C(C)N1 | 26.5 µM (inactive) | 13.6 µM (inactive) | 13.9 µM (inactive) | 17.3 µM (inactive) | 26.5 µM (inactive) | 14.6 µM (inactive) | 17.3 µM (inactive) | 15.1 µM (inactive) | 15.5 µM (inactive) | 12.7 µM (inactive) | 19.1 µM (inactive) | 26.1 µM (inactive) | 16.1 µM (inactive) | 18.1 µM (inactive) | 16 µM (inactive) |
| CCOc1ccc2c(c1)[n+]([O-])c(-c1nc3ccccc3s1)c(N)[n+]2[O-] | 43.1 µM (inactive) | 48 µM (inactive) | > 100 µM (inactive) | 45.4 µM (inactive) | 32.1 µM (inactive) |  | 96.6 µM (inactive) | 31.2 µM (inactive) | 21.6 µM (inactive) | 31.3 µM (inactive) | > 100 µM (inactive) | > 100 µM (inactive) | 25.6 µM (inactive) | 53.1 µM (inactive) | 58.7 µM (inactive) |
| CCC(CC)NC1=C(NC(C)=O)C(=O)c2ccccc2C1=O | > 50 µM (inactive) | > 50 µM (inactive) | > 50 µM (inactive) | > 50 µM (inactive) | > 50 µM (inactive) | > 50 µM (inactive) | > 50 µM (inactive) | > 50 µM (inactive) | > 50 µM (inactive) | > 50 µM (inactive) | > 50 µM (inactive) | > 50 µM (inactive) | > 50 µM (inactive) | > 50 µM (inactive) | > 50 µM (inactive) |
| NC(CCCC(N)P(=O)(O)c1ccccc1)P(=O)(O)c1ccccc1 (stereo not drawn) | > 261 µM (inactive) | > 261 µM (inactive) | > 261 µM (inactive) | > 261 µM (inactive) | > 261 µM (inactive) | > 261 µM (inactive) | > 261 µM (inactive) | > 261 µM (inactive) | > 261 µM (inactive) | > 261 µM (inactive) | > 261 µM (inactive) | > 261 µM (inactive) | > 261 µM (inactive) | > 261 µM (inactive) | > 261 µM (inactive) |
| CCOC(=O)/C(=C/c1ccc(N(C)C)cc1)N(CC)CC | > 100 µM (inactive) | 27 µM (inactive) | > 100 µM (inactive) | 21.1 µM (inactive) | 76.6 µM (inactive) | 48.1 µM (inactive) | > 100 µM (inactive) | 27.2 µM (inactive) | 34.3 µM (inactive) | 68.5 µM (inactive) | > 100 µM (inactive) | > 100 µM (inactive) | 49.4 µM (inactive) | 35.2 µM (inactive) |  |
| CCN1CCC(O)(/C=C/c2ccccc2)C(C(=O)/C=C/c2ccccc2)C1 (stereo not drawn) | 1.91 µM (inactive) |  | 1.77 µM (inactive) | 3.02 µM (inactive) | 2.54 µM (inactive) | 1.63 µM (inactive) | 1.96 µM (inactive) | 1.64 µM (inactive) | 1.73 µM (inactive) | 10.1 µM (inactive) | 7.85 µM (inactive) | 2.61 µM (inactive) | 2.93 µM (inactive) | 3.33 µM (inactive) | 1.76 µM (inactive) |
| COC(=O)c1ccc2n[se]nc2c1 | > 100 µM (inactive) | > 100 µM (inactive) |  |  | > 100 µM (inactive) | > 100 µM (inactive) | > 100 µM (inactive) | > 100 µM (inactive) | > 100 µM (inactive) | > 100 µM (inactive) | > 100 µM (inactive) | > 100 µM (inactive) | > 100 µM (inactive) | 71 µM (inactive) | > 100 µM (inactive) |
| Cc1ccc(C2[C@H]3C(=O)N(c4ccc(Cc5ccc(N6C(=O)[C@@H]7ON(c8ccccc8)C(c8ccc(C)cc8)[C@@H]7C6=O)cc5)cc4)C(=O)[C@H]3ON2c2ccccc2)cc1 (stereo partly drawn) | > 100 µM (inactive) | > 100 µM (inactive) | > 100 µM (inactive) | > 100 µM (inactive) | > 100 µM (inactive) |  | > 100 µM (inactive) | > 100 µM (inactive) |  | > 100 µM (inactive) | > 100 µM (inactive) |  | > 100 µM (inactive) |  | > 100 µM (inactive) |
| O=C1NC(=O)C(C(=O)C(=O)Nc2cc(Cl)ccc2Cl)C(=O)N1 | > 100 µM (inactive) | > 100 µM (inactive) | > 100 µM (inactive) |  | > 100 µM (inactive) | > 100 µM (inactive) | > 100 µM (inactive) | > 100 µM (inactive) | > 100 µM (inactive) | > 100 µM (inactive) | > 100 µM (inactive) | > 100 µM (inactive) | > 100 µM (inactive) | > 100 µM (inactive) |  |
| COC(=O)C1=C(C)N(NC(=O)Nc2ccccc2)C2(N)N(NC(=O)Nc3ccccc3)C(C)=C(C(=O)OC)C12C(=O)OC (stereo not drawn) |  | 35.2 µM (inactive) | 34.7 µM (inactive) | 60.4 µM (inactive) | > 100 µM (inactive) | > 100 µM (inactive) | 39.4 µM (inactive) |  | 32.3 µM (inactive) | > 100 µM (inactive) | > 100 µM (inactive) | 69.3 µM (inactive) | > 100 µM (inactive) |  | 65.2 µM (inactive) |
| O=C(Nc1ccccc1SC(/C=C/NNC1=NN=C(c2ccccc2)C(c2ccccc2)N1)c1ccccc1)c1ccc(Cl)cc1Cl (stereo not drawn) | 23.3 µM (inactive) | 48.8 µM (inactive) | > 100 µM (inactive) | 31.4 µM (inactive) | 35.6 µM (inactive) |  | 47 µM (inactive) | 35.6 µM (inactive) | > 100 µM (inactive) | 34 µM (inactive) | 49.3 µM (inactive) | > 100 µM (inactive) | 22.8 µM (inactive) | 37.8 µM (inactive) | > 100 µM (inactive) |
| COc1ccc(NC(=O)CC(=O)N/N=C/c2ccc(N(CCC#N)S(C)(=O)=O)cc2)cc1 | > 100 µM (inactive) | > 100 µM (inactive) | > 100 µM (inactive) | > 100 µM (inactive) | > 100 µM (inactive) | > 100 µM (inactive) | > 100 µM (inactive) |  | > 100 µM (inactive) | > 100 µM (inactive) | > 100 µM (inactive) | > 100 µM (inactive) | > 100 µM (inactive) | > 100 µM (inactive) | > 100 µM (inactive) |
| CC(=O)O[C@]12CCCCC1C1(O)C(O)CCCC[C@H]12 (stereo partly drawn) |  | > 100 µM (inactive) | > 100 µM (inactive) | > 100 µM (inactive) | > 100 µM (inactive) | > 100 µM (inactive) |  | > 100 µM (inactive) | > 100 µM (inactive) | > 100 µM (inactive) | > 100 µM (inactive) | > 100 µM (inactive) | > 100 µM (inactive) | > 100 µM (inactive) | > 100 µM (inactive) |
| O=C(Nc1nc2ncn(CCO)c2c(=O)[nH]1)c1ccccc1 | > 100 µM (inactive) | > 100 µM (inactive) | > 100 µM (inactive) | > 100 µM (inactive) | > 100 µM (inactive) | > 100 µM (inactive) |  | > 100 µM (inactive) | > 100 µM (inactive) | > 100 µM (inactive) | > 100 µM (inactive) | > 100 µM (inactive) |  | > 100 µM (inactive) | > 100 µM (inactive) |
| O=C1c2ccccc2C(=O)N1CCN(CCN1C(=O)c2ccccc2C1=O)Cn1cccn1 |  | 32.7 µM (inactive) | > 100 µM (inactive) |  | > 100 µM (inactive) | 17.8 µM (inactive) | > 100 µM (inactive) | 27.4 µM (inactive) | > 100 µM (inactive) | > 100 µM (inactive) | > 100 µM (inactive) | > 100 µM (inactive) |  | > 100 µM (inactive) |  |
| CCc1c(-c2coc(CC/C(C)=C/c3ccccc3)n2)oc(OC)c(C)c1=O | 28 µM (inactive) | 14.9 µM (inactive) | 21.5 µM (inactive) | 68.2 µM (inactive) | > 100 µM (inactive) | 19 µM (inactive) | 78.7 µM (inactive) | 5.13 µM (inactive) | 0.209 µM (active) | 5.35 µM (inactive) | 32.7 µM (inactive) | > 100 µM (inactive) |  | 25.4 µM (inactive) | 24.8 µM (inactive) |
| COC(=O)C1[C@@H](C(=O)OC)C12C=Cc1ccccc1C=C2 (stereo partly drawn) | > 100 µM (inactive) | > 100 µM (inactive) | > 100 µM (inactive) |  | > 100 µM (inactive) | > 100 µM (inactive) | > 100 µM (inactive) | > 100 µM (inactive) | > 100 µM (inactive) | > 100 µM (inactive) | > 100 µM (inactive) | > 100 µM (inactive) | > 100 µM (inactive) | > 100 µM (inactive) |  |
| CC1C=C[C@H](Sc2ccccc2)CC[C@@]1(C)O (stereo partly drawn) | > 100 µM (inactive) | 34.7 µM (inactive) | > 100 µM (inactive) | > 100 µM (inactive) |  | 97.3 µM (inactive) | > 100 µM (inactive) | 33.6 µM (inactive) |  | 30.1 µM (inactive) | > 100 µM (inactive) | > 100 µM (inactive) | 70.5 µM (inactive) | > 100 µM (inactive) | > 100 µM (inactive) |
